Where two headings read alike, the source gives them in different places.
Columns and labels:
CB1 receptor = target: T1, CB1 receptor (Homo sapiens, UniProt P21554); assay: Binding assay for CB1 agonists or inverse agonists (SK-N-MC membranes, [3H]-CP-55,940); details: for inhibition at 1 µM: read-out: CB1 receptor binding percent inhibition, test concentration 1 μM (footnote 1)
T1 construct: expressed in transfected cells
Experimental: (§1) The human CB1 and CB2 receptors were stably expressed in SK-N-MC cells transfected with pcDNA3 CB-1 (human) or pcDNA3 CB-2 (human). The cells were grown in T-180 cell culture flasks under standard cell culture conditions at 37° C. in a 5% CO2 atmosphere. The cells were harvested by trysinization and homogenized in a homogenization buffer (10 mM Tris, 0.2 mM MgCl2, 5 mM KCl, with protease inhibitors aprotinin, leupeptin, pepstatin A and bacitracin) and centrifuged (2000 g). The supernatant was then centrifuged in 2M sucrose (31,300 g) to produce a semi-purified membrane pellet. The pellet was resuspended in homogenization and stored at −80° C.
(§2) On the day of the assay, the pellet was thawed on ice and diluted in assay buffer (50 mM Tris-HCl, 5 mM MgCl2, 2.5 mM EDTA, 0.5 mg/mL fatty acid free bovine serum aldumin, pH 7.5). The diluted membrane pellet was added with buffer, either a test compound or vehicle standard and the radioligand [H]^3+-CP-55,940 (0.2 mM) to the wells of a 96-well polypropylene plate. Non-specific binding was measured in wells containing WIN 55,212 (10 uM). The plate was covered and incubated for 90 minutes at 30° C. The contents were then aspirated onto a Packard Unifilter GF/C filter bottom plate prewet with 0.5% polyethyleneimine. The wells of the polypropylene plate were rinsed and aspirated seven times with a 0.9% saline-0.5% Tween 20 solution. The Unifilter plate was dried, a scintillation cocktail was added to each well and the counts representing binding were quantitated in a TopCount scintillation counter.
(§3) For compounds tested, an IC50 binding value was obtained from percent inhibition studies in which various test concentrations were used. The binding value was calculated by linear regression.

CB2 receptor = target: T2, CB2 receptor (Homo sapiens, UniProt P34972); assay: Binding assay for CB2 agonists or inverse agonists (SK-N-MC membranes, [3H]-CP-55,940); details: for CB2 receptor binding percent inhibition: test concentration not stated
T2 construct: expressed in transfected cells
Experimental: as §1
as §2, with “The diluted membrane pellet was added with buffer, either a test compound or vehicle standard and the radioligand [H]^3+-CP-55,940 (0.2 mM) to the wells of a 96-well polypropylene plate. Non-specific binding was measured in wells containing WIN 55,212 (10 uM).” left out
as §3

[1] = read-out: CB1 receptor binding percent inhibition, test concentration 0.2 μM (footnote 2)
[2] = test concentration 0.2 μM (footnote 2), read-out: CB2 receptor binding percent inhibition

T2 sequence (P34972 whole entry): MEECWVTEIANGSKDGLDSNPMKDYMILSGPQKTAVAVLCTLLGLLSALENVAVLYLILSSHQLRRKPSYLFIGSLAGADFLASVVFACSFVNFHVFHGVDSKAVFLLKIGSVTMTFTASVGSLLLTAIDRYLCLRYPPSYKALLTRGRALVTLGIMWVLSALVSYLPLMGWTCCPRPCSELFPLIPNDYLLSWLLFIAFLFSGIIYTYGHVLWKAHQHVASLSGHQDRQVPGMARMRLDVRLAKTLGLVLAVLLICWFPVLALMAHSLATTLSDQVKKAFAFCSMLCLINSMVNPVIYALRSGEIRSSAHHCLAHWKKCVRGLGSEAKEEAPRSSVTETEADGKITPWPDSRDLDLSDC
T1 sequence (P21554 whole entry): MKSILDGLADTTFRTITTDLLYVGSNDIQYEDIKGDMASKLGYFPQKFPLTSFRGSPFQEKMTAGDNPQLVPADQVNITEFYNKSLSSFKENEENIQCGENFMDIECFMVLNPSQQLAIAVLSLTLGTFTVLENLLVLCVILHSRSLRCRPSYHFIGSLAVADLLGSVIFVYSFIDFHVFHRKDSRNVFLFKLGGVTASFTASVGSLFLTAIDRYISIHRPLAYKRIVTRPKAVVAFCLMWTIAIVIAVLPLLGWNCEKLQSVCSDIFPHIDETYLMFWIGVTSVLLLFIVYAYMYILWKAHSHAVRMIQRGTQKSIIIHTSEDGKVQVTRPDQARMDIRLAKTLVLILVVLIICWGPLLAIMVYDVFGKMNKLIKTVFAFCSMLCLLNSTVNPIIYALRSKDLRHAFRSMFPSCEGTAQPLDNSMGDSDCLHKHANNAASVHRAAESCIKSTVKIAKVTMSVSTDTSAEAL

SMILES: O=C(NN1CCOCC1)c1nn(-c2ccccc2Cl)c2c1CCCC/C2=C\c1ccc(Cl)cc1 [Cpd 194, (8E)-8-(4-chloro-benzylidene)-1-(2-chloro-phenyl)-1,4,5,6,7,8-hexahydro-cycloheptapyrazole-3-carboxylic acid morpholin-4-ylamide]
- inhibition at 0.2 µM (CB1 receptor; [1]): 19%
- inhibition at 0.2 µM (CB2 receptor; [2]): 10%

SMILES: O=C(NC1CC1)c1nn(Cc2ccc(Cl)cc2)c2c1CCCCC2Cc1cccc(Cl)c1 (stereo not shown) [Cpd 35, 1-(4-chloro-benzyl)-8-(3-chloro-benzyl)-1,4,5,6,7,8-hexahydro-cycloheptapyrazole-3-carboxylic acid cyclopropylamide]
- inhibition at 1 µM (CB1 receptor): 22%
- CB2 receptor binding percent inhibition (CB2 receptor): 36%

SMILES: C[C@@H](NC(=O)c1nn(-c2cc(Cl)ccc2Cl)c2c1CCCC/C2=C\c1ccc(Cl)cc1)c1ccccc1 [Cpd 195, (8E)-8-(4-chloro-benzylidene)-1-(2,5-dichloro-phenyl)-1,4,5,6,7,8-hexahydro-cycloheptapyrazole-3-carboxylic acid [(1R)-1-phenyl-ethyl]-amide]
- inhibition at 0.2 µM (CB1 receptor; read-out: CB1 receptor binding percent inhibition): 63%
- inhibition at 0.2 µM (CB2 receptor; read-out: CB2 receptor binding percent inhibition, test concentration 0.2 μM (footnote 2)): 37%

SMILES: O=C(N[C@H](CO)c1ccccc1)c1nn(-c2ccc(Cl)cc2Cl)c2c1CCCC[C@H]2Cc1cccc(Cl)c1 [Cpd 162, (8S)-8-(3-chloro-benzyl)-1-(2,4-dichloro-phenyl)-1,4,5,6,7,8-hexahydro-cycloheptapyrazole-3-carboxylic acid [(1S)-2-hydroxy-1-phenyl-ethyl]-amide]
- inhibition at 0.2 µM (CB1 receptor; [1]): 16%
- inhibition at 0.2 µM (CB2 receptor; [2]): 5%

SMILES: O=C(NC1CC1)c1nn(C2CCCCC2)c2c1CCCCC2Cc1ccc(Cl)cc1 (stereo not shown) [Cpd 33, 8-(4-chloro-benzyl)-1-cyclohexyl-1,4,5,6,7,8-hexahydro-cycloheptapyrazole-3-carboxylic acid cyclopropylamide]
- inhibition at 1 µM (CB1 receptor): 0%
- CB2 receptor binding percent inhibition (CB2 receptor): 0%

SMILES: CCOC(=O)[C@@H]1C2CCC(C2)[C@@H]1NC(=O)c1nn(C2CCCCC2)c2c1CCCCC2Cc1ccc(F)cc1 (stereo partly drawn) [Cpd 106, (2R,3S)-3-{[1-cyclohexyl-8-(4-fluoro-benzyl)-1,4,5,6,7,8-hexahydro-cycloheptapyrazole-3-carbonyl]-amino}-bicyclo[2.2.1]heptane-2-carboxylic acid ethyl ester]
- inhibition at 1 µM (CB1 receptor): 45%
- CB2 receptor binding percent inhibition (CB2 receptor): 95%

SMILES: O=C(NC1CCC1)c1nn(-c2ccc(Cl)cc2Cl)c2c1CCCCC2Cc1cccc(Cl)c1 (stereo not shown) [Cpd 24, 8-(3-chloro-benzyl)-1-(2,4-dichloro-phenyl)-1,4,5,6,7,8-hexahydro-cycloheptapyrazole-3-carboxylic acid cyclobutylamide]
- inhibition at 1 µM (CB1 receptor): 28%
- CB2 receptor binding percent inhibition (CB2 receptor): 0%

SMILES: CCOC(=O)[C@@H]1C2CCC(C2)[C@@H]1NC(=O)c1nn(C2CCCCC2)c2c1CCCCC2Cc1cccc(F)c1 (stereo partly drawn) [Cpd 105, (2R,3S)-3-{[1-cyclohexyl-8-(3-fluoro-benzyl)-1,4,5,6,7,8-hexahydro-cycloheptapyrazole-3-carbonyl]-amino}-bicyclo[2.2.1]heptane-2-carboxylic acid ethyl ester]
- inhibition at 1 µM (CB1 receptor): 2%
- CB2 receptor binding percent inhibition (CB2 receptor): 82%

SMILES: O=C(NC12CC3CC(CC(C3)C1)C2)c1nn(C2CCCCC2)c2c1CCCCC2Cc1cccc(Cl)c1 (stereo not shown) [Cpd 19, 8-(3-chloro-benzyl)-1-cyclohexyl-1,4,5,6,7,8-hexahydro-cycloheptapyrazole-3-carboxylic acid adamantan-1-ylamide]
- inhibition at 1 µM (CB1 receptor): 18%
- CB2 receptor binding percent inhibition (CB2 receptor): 51%

SMILES: O=C(NCc1ccccc1)c1nn(C2CCCCC2)c2c1CCCCC2Cc1cccc(F)c1 (stereo not shown) [Cpd 53, 1-cyclohexyl-8-(3-fluoro-benzyl)-1,4,5,6,7,8-hexahydro-cycloheptapyrazole-3-carboxylic acid benzylamide]
- inhibition at 1 µM (CB1 receptor): 33%
- CB2 receptor binding percent inhibition (CB2 receptor): 52%

SMILES: O=C(NC1C2CC3CC(C2)CC1C3)c1nn(C2CCCCC2)c2c1CCCCC2Cc1ccccc1Cl (stereo not shown) [Cpd 13, 8-(2-chloro-benzyl)-1-cyclohexyl-1,4,5,6,7,8-hexahydro-cycloheptapyrazole-3-carboxylic acid adamantan-2-ylamide]
- inhibition at 1 µM (CB1 receptor): 0%
- CB2 receptor binding percent inhibition (CB2 receptor): 14%
